Assays:
[1] = test system: delayed rectifier K^+ currents; test: Voltage-clamp outward K^+ currents at HP −20 mV in unidentified DRG neurons; format: cell-based, rat; settings: for K^+ current at HP: −20 mV, relative value (before compound = 1): unidentified DRG neurons
Procedure: (§1) Experiments were performed on adult female Sprague Dawley rats. First and second series of the experiments were performed, respectively, in unidentified DRG neurons and a specific population of DRG neurons innervating the urinary bladder. The population of DRG neurons that innervate the urinary bladder were labeled by retrograde axonal transport of the fluorescent dye, Fast Blue (4% w/v) (Polyloy, Gross Umstadt, Germany), injected into the wall of the bladder in halothane-anesthetized animals 7 days before the dissociation. The dye was injected with a 28 gauge needle at three to six sites on the dorsal surface of the organ (5-6 μL per site, total volume of 20-30 μL). Each injection site was washed with saline to minimize contamination of adjacent organs with the dye.
Freshly dissociated neurons from DRG were prepared from halothane-anesthetized animals. L6 and S1 DRG were dissected from animals and then dissociated in a shaking bath for 25 minutes at 35° C. with 5 mL DMEM (Sigma) containing 0.3 mg/mL trypsin (Type 3, Sigma), 1 mg/mL collagenase (Type 1, Sigma), and 0.1 mg/mL deoxyribonuclease (Type 4, Sigma). Trypsin inhibitor (Type 2a, Sigma) was then added thereto to neutralize the activity of trypsin. Individual DRG cell bodies were isolated by trituration and then plated on a poly-L-lysine-coated 35 mm Petri dishes.
Dye-labeled primary afferent neurons that innervate the urinary bladder were identified using an inverted phase-contrast microscope (Nikon, Tokyo, Japan) with fluorescent attachments (UV-1A filter; excitation wavelength, 365 nm). Gigaohm-seal whole-cell recordings were performed at room temperature (20-22° C.) on each labeled neuron in a culture dish that usually contained three to seven labeled cells among a few hundred unlabeled neurons. The internal solution contained (in mmol/L): KCl 140, CaCl2 1, MgCl2 2, EGTA 11, HEPES 10, Mg-ATP 2, and Tris-GTP 0.4 adjusted to pH 7.4 with KOH. Patch electrodes had resistances of 1-4 MΩ when filled with the internal solution. Neurons were superfused at a flow rate of 1.5 mL/minutes with an external solution containing (in mmol/L): NaCl 150, KCl 5, CaCl2 2.5, MgCl2 1, HEPES 10, and D-glucose 10, adjusted to pH 7.4 with NaOH. All recordings were made with an Axopatch-1D patch-clamp amplifier (Axon Instruments, Foster City, Calif.), and data were acquired and analyzed by PCLAMP software (Axon Instruments).
In voltage-clamp recordings, outward K^+ currents and inward Na^+ currents were measured. For the isolation of K^+ currents, the external solution was changed to one containing (in mmol/L): choline-Cl 150, KOH 5, CaCl2 0.03, HEPES 10, Mg(OH)2 3, and D-glucose 10, adjusted to pH 7.4 with HCl.
In first series of experiments using unidentified DRG neurons, outward K^+ currents were evoked by voltage steps to +60 mV, 800 ms long from a holding potentials of −90 mV, this was followed by a 1-second conditioning prepulse to −20 mV followed by a second pulse to +60 mV, identical to the first in the sequence. In the second series of experiments using Fast Blue-labeled bladder afferent neurons, slowly-inactivating A-type K^+ currents were isolated by. subtraction of outward K^+ currents activated from a holding potential of −40 mV (on the condition of inactivation of the majority of slowly-inactivating A-type K^+ currents) from those activated from a holding potential of −120 mV (on the condition of full activation of slowly-inactivating A-type K^+ currents). A compound was added cumulatively, starting with a lower concentration. Currents were measured at the maximum (peak) and normalized to control (before addition of the compound).

[2] = test system: slowly-inactivating A-type K^+ currents; test: Slowly-inactivating A-type K^+ currents in Fast Blue-labeled capsaicin-sensitive bladder afferent neurons; format: cell-based, rat; settings: 1.0 × 10^−6 mol/L
Procedure: as §1
Freshly dissociated neurons from DRG were prepared from halothane-anesthetized animals. […]
Dye-labeled primary afferent neurons that innervate the urinary bladder were identified using an inverted phase-contrast microscope (Nikon, Tokyo, Japan) with fluorescent attachments (UV-1A filter; excitation wavelength, 365 nm). […] All recordings were made with an Axopatch-1D patch-clamp amplifier (Axon Instruments, Foster City, Calif.), and data were acquired and analyzed by PCLAMP software (Axon Instruments).
In voltage-clamp recordings, outward K^+ currents and inward Na^+ currents were measured. […]

[3] = test system: spinal cord-injured rats; test: Inhibition of detrusor hyperreflexia, cystometry in spinal cord-injured rats; format: in vivo, rat
From the text: Spinal cord injury was induced in rats.

[4] = 0.001 mg/kg p.o., after 3 hours
[5] = 0.001 mg/kg p.o., after 5 hours

## C[C@](O)(C(=O)Nc1cccc2c1C(=O)c1sccc1CS2(=O)=O)C(F)(F)F [Compound 1, (S)-(+)-N-(5,5-dioxido-10-oxo-4,10-dihydrothieno[3,2-c][l]benzothiepin-9-yl)-3,3,3-trifluoro-2-hydroxy-2-methylpropanamide]
[1]; 1.0 × 10^−5 mol/L, in the presence of 5 μmol/L verapamil
  K^+ current at HP: −20 mV, relative value: 1.00 ± 0.02
[1]; 1.0 × 10^−5 mol/L, in the presence of 20 mmol/L tetraethylammonium
  K^+ current at HP: −20 mV, relative value: 1.01 ± 0.02
[1]; 1.0 × 10^−5 mol/L
  K^+ current at HP: −20 mV, relative value (before compound = 1): 0.88 ± 0.07
[1]; 1.0 × 10^−6 mol/L, in the presence of 5 μmol/L verapamil
  K^+ current at HP: −20 mV, relative value: 1.00 ± 0.01
[1]; 1.0 × 10^−6 mol/L, in the presence of 20 mmol/L tetraethylammonium
  K^+ current at HP: −20 mV, relative value: 1.00 ± 0.00
[1]; 1.0 × 10^−6 mol/L
  K^+ current at HP: −20 mV, relative value (before compound = 1): 1.00 ± 0.02
[1]; 1.0 × 10^−7 mol/L, in the presence of 5 μmol/L verapamil
  K^+ current at HP: −20 mV, relative value: 1.00 ± 0.01
[1]; 1.0 × 10^−7 mol/L, in the presence of 20 mmol/L tetraethylammonium
  K^+ current at HP: −20 mV, relative value: 0.99 ± 0.02
[1]; 1.0 × 10^−7 mol/L
  K^+ current at HP: −20 mV, relative value (before compound = 1): 1.02 ± 0.01
[1]; 1.0 × 10^−8 mol/L
  K^+ current at HP: −20 mV, relative value (before compound = 1): 0.98 ± 0.04
[1]; 2.5 × 10^−8 mol/L
  K^+ current at HP: −20 mV, relative value (before compound = 1): 1.01 ± 0.03
[1]; 5.0 × 10^−4 mol/L, in the presence of 5 μmol/L verapamil
  K^+ current at HP: −20 mV, relative value: 0.83 ± 0.06
[1]; 5.0 × 10^−4 mol/L, in the presence of 20 mmol/L tetraethylammonium
  K^+ current at HP: −20 mV, relative value: 0.25 ± 0.04
[1]; 5.0 × 10^−4 mol/L, in the presence of 60 mmol/L tetraethylammonium
  K^+ current at HP: −20 mV, relative value: 0.54 ± 0.02
[1]; 5.0 × 10^−5 mol/L, in the presence of 5 μmol/L verapamil
  K^+ current at HP: −20 mV, relative value: 0.98 ± 0.01
[1]; 5.0 × 10^−5 mol/L, in the presence of 20 mmol/L tetraethylammonium
  K^+ current at HP: −20 mV, relative value: 0.84 ± 0.06
[1]; 5.0 × 10^−5 mol/L, in the presence of 60 mmol/L tetraethylammonium
  K^+ current at HP: −20 mV, relative value: 0.95 ± 0.03
[1]; 5.0 × 10^−5 mol/L
  K^+ current at HP: −20 mV, relative value (before compound = 1): 0.81 ± 0.08
[1]; 5.0 × 10^−6 mol/L, in the presence of 5 μmol/L verapamil
  K^+ current at HP: −20 mV, relative value: 1.01 ± 0.01
[1]; 5.0 × 10^−6 mol/L, in the presence of 20 mmol/L tetraethylammonium
  K^+ current at HP: −20 mV, relative value: 0.98 ± 0.01
[1]; 5.0 × 10^−6 mol/L, in the presence of 60 mmol/L tetraethylammonium
  K^+ current at HP: −20 mV, relative value: 0.97 ± 0.02
[1]; 5.0 × 10^−7 mol/L, in the presence of 5 μmol/L verapamil
  K^+ current at HP: −20 mV, relative value: 1.00 ± 0.01
[1]; 5.0 × 10^−7 mol/L, in the presence of 20 mmol/L tetraethylammonium
  K^+ current at HP: −20 mV, relative value: 1.01 ± 0.01
[1]; 5.0 × 10^−7 mol/L, in the presence of 60 mmol/L tetraethylammonium
  K^+ current at HP: −20 mV, relative value: 0.97 ± 0.03
[1]; 5.0 × 10^−7 mol/L
  K^+ current at HP: −20 mV, relative value (before compound = 1): 1.01 ± 0.02
[1]; 5.0 × 10^−8 mol/L, in the presence of 5 μmol/L verapamil
  K^+ current at HP: −20 mV, relative value: 1.00 ± 0.00
[1]; 5.0 × 10^−8 mol/L, in the presence of 20 mmol/L tetraethylammonium
  K^+ current at HP: −20 mV, relative value: 0.99 ± 0.01
[1]; 5.0 × 10^−8 mol/L, in the presence of 60 mmol/L tetraethylammonium
  K^+ current at HP: −20 mV, relative value: 1.00 ± 0.01
[1]; 5.0 × 10^−8 mol/L
  K^+ current at HP: −20 mV, relative value (before compound = 1): 1.00 ± 0.01
[1]; 5.0 × 10^−9 mol/L, in the presence of 20 mmol/L tetraethylammonium
  K^+ current at HP: −20 mV, relative value: 0.99 ± 0.00
[1]; 5.0 × 10^−9 mol/L
  K^+ current at HP: −20 mV, relative value (before compound = 1): 0.98 ± 0.02
[1]; unidentified DRG cells, HP −20 mV
  influence upon delayed rectifier K^+ currents: does not have no influences (little influences)
[2]
  A-type IK (HP: −120 mV)-(HP: −40 mV), normalized to control: 1.26 ± 0.03
[3]
  effect on micturition (physiological) contraction: had no influence
  effect on pre-micturition contraction (detrusor overactivity): inhibited
[3]; 0.001 mg/kg p.o., after 1 hour
  micturition contraction, relative to before administration = 100: 106.5 ± 11.3%
  pre-micturition contraction, relative to before administration = 100: 83.5 ± 6.8%
[3]; [4]
  micturition contraction, relative to before administration = 100: 101.7 ± 9.5%
  pre-micturition contraction, relative to before administration = 100: 95.4 ± 12.0%
[3]; [5]
  micturition contraction, relative to before administration = 100: 103.1 ± 6.5%
  pre-micturition contraction, relative to before administration = 100: 105.5 ± 20.8%
[3]; 0.01 mg/kg p.o., after 1 hour
  micturition contraction, relative to before administration = 100: 114.4 ± 9.5%
  pre-micturition contraction, relative to before administration = 100: 59.6 ± 8.1 %
[3]; 0.01 mg/kg p.o., after 3 hours
  micturition contraction, relative to before administration = 100: 117.6 ± 13.9%
  pre-micturition contraction, relative to before administration = 100: 51.2 ± 6.7 %
[3]; 0.01 mg/kg p.o., after 5 hours
  micturition contraction, relative to before administration = 100: 117.6 ± 12.7%
  pre-micturition contraction, relative to before administration = 100: 42.2 ± 7.2 %
[3]; 0.1 mg/kg p.o., after 1 hour
  micturition contraction, relative to before administration = 100: 109.3 ± 6.3%
  pre-micturition contraction, relative to before administration = 100: 52.3 ± 9.1 %
[3]; 0.1 mg/kg p.o., after 3 hours
  micturition contraction, relative to before administration = 100: 110.2 ± 5.4%
  pre-micturition contraction, relative to before administration = 100: 33.3 ± 6.3 %
[3]; 0.1 mg/kg p.o., after 5 hours
  micturition contraction, relative to before administration = 100: 112.4 ± 7.0%
  pre-micturition contraction, relative to before administration = 100: 28.5 ± 6.2 %

— US20040132803A1, “Agent for the treatment of overactive bladder” (priority 2003, published 2004)
